Data on nine compounds can be found in ChEMBL document CHEMBL6103636, “Development of Potent SHP2 Allosteric Inhibitors: Design, Synthesis, and Evaluation with Antitumor Effects” (J Med Chem, 2025).

The IC50 is the concentration at which inhibition is half-maximal. Read a low IC50 as greater potency.

The target in series [1] is T1, Tyrosine-protein phosphatase non-receptor type 11 (Homo sapiens, UniProt Q06124).
T1 sequence (Q06124 whole entry): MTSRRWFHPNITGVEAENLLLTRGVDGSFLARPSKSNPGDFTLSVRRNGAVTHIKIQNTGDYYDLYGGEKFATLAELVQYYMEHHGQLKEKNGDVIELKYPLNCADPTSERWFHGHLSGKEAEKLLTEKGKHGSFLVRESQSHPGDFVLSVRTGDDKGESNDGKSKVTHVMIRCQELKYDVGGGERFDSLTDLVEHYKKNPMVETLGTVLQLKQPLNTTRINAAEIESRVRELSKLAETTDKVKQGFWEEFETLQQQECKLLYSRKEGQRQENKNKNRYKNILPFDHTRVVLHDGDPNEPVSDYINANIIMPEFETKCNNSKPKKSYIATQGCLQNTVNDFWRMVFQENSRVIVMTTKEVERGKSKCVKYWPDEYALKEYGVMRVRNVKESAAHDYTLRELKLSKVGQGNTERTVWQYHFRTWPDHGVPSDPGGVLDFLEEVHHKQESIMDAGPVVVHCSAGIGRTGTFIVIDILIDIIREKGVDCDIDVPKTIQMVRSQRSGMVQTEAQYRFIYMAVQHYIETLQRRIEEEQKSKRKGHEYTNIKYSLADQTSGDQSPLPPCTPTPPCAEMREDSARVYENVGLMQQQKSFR
Briefly: Inhibition of H2N-LN(pY)IDLDLV-(dPEG80) LST(pY)-ASINFQK-amide-activated SHP2 (unknown origin) using DiFMUP as substrate incubated for 30 mins by fluorescence based assay.

Series [2] in a line: Inhibition of ERK phosphorylation in human KYSE520 cells incubated for 2 hrs by fluorescence based assay. The series is classed as cell-based. To be noted: KYSE-520, 2 h.
In another series the test system is KYSE-520 cell line. In words: cells. To be noted: Homo sapiens, KYSE-520, 72 h.
A short description of series [3]: Toxicity in NU/NU mouse implanted with human KYSE520 cells assessed as abnormalities in animal at 25 mg/kg, po treated for 20 days. The series is classed as organism-based. To be noted: in vivo, 480 h, time 20 day.
A short description of series [4]: Toxicity in NU/NU mouse implanted with human KYSE520 cells assessed as abnormalities in heart at 25 mg/kg, po treated for 20 days by H and E staining based analysis. It counts as organism-based. To be noted: in vivo, 480 h, time 20 day.
Series [5] in a line: Toxicity in NU/NU mouse implanted with human KYSE520 cells assessed as drug tolerance at 25 mg/kg, po treated for 20 days. The series is classed as organism-based. To be noted: in vivo, 480 h, time 20 day.
Series [6] in a line: Toxicity in NU/NU mouse implanted with human KYSE520 cells assessed as abnormalities in spleen at 25 mg/kg, po treated for 20 days by H and E staining based analysis. The series is classed as organism-based. To be noted: in vivo, 480 h, time 20 day.
Series [7] is described as follows: Toxicity in NU/NU mouse implanted with human KYSE520 cells assessed as abnormalities in lung at 25 mg/kg, po treated for 20 days by H and E staining based analysis. It counts as organism-based. To be noted: in vivo, 480 h, time 20 day.
The nature of series [8]: Toxicity in NU/NU mouse implanted with human KYSE520 cells assessed as abnormalities in liver at 25 mg/kg, po treated for 20 days by H and E staining based analysis. It counts as organism-based. To be noted: in vivo, 480 h, time 20 day.
Series [9] is described as follows: Toxicity in NU/NU mouse implanted with human KYSE520 cells assessed as abnormalities in kidney at 25 mg/kg, po treated for 20 days by H and E staining based analysis. It counts as organism-based. To be noted: in vivo, 480 h, time 20 day.
Series [10] is described as follows: Toxicity in NU/NU mouse implanted with human KYSE520 cells assessed as body weight loss at 25 mg/kg, po treated for 20 days. The series is classed as organism-based. To be noted: in vivo, 480 h, time 20 day.

Description for KYSE-520 cell line: Antiproliferative activity against human KYSE520 cells measured after 72 hrs by Cell Titer-Glo assay

`NC1COCC12CCN(c1nc3ccc(Sc4ccnc5c4OC[C@@H]4CCCN54)nc3s1)CC2` (some centres undefined): in [1], the IC50 came to 434 nM. That is a sub-micromolar value.

In the case of `NC1COCC12CCN(c1nc3ccc(Sc4cccc(NC(=O)c5c(O)nc6ccccn6c5=O)c4Cl)nc3s1)CC2` (centres undefined), the IC50 in [1] came out at 68.1 nM; in series [2] it was 175 nM; in the series on KYSE-520 cell line, 1200 nM.

For the compound `Nc1cccc(Sc2ccc3nc(N4CCCC(N)CC4)sc3n2)c1Cl` (centres undefined), the concentration for half-maximal inhibition (IC50) in [1] was found to be 372 nM.

On to `NC1COCC12CCN(c1ncc(Sc3ccnc4c3OC[C@@H]3CCCN43)c3nncn13)CC2` (some centres undefined), for which 78.9 nM corresponded to half-maximal inhibition in [1] (IC50).

For the compound `Nc1nccc(Sc2ccc3nc(N4CC5CC(C4)N5)sc3n2)c1Cl`, the midpoint of inhibition in series [1], the IC50, lay at 623 nM.

Take `NC1COCC12CCN(c1nc3ccc(Sc4ccnc5c4OC[C@@H]4CCCN54)cc3s1)CC2` (some centres undefined): in [1], half-maximal inhibition (IC50) required 837 nM.

For `CCC1C(O)=C(C(=O)Nc2cccc(Sc3ccc4nc(N5CCC(C)(N)CC5)sc4n3)c2Cl)C(=O)N1C` (centres undefined), the IC50 in series [1] was 82.7 nM; in series [2], > 10000 nM; with KYSE-520 cell line, > 10000 nM.

For the compound `NC1COCC12CCN(c1nc3ccc(Sc4cccc(NC(=O)C5=C(O)CN(c6ccccc6)C5=O)c4Cl)nc3s1)CC2` (centres undefined), the IC50 in series [1] was 70.2 nM; in series [2] it was 2150 nM; with KYSE-520 cell line, 9250 nM.

In the case of `C[C@@H]1OCC2(CCN(c3cnc(Sc4ccnc(N)c4Cl)c(N)n3)CC2)[C@@H]1N` [BATOPROTAFIB], the Activity result in series [3], in series [4], in series [5], in series [6], in [7] and in [8] was “Non-toxic” in each case. Also, the Activity entry in [9] and in series [10] was “Non-toxic” in each case. Moreover, the figures for the IC50 (in series [2]; in the series on KYSE-520 cell line) were 49 nM and 241 nM, respectively.
